Experimental data from patent publication US10336761B2, “TGFβ receptor antagonist” (BRISTOL-MYERS SQUIBB COMPANY, priority 2015, dated 2019).

The compounds below were run against HIS-TGFβR1 T204D (Homo sapiens (Human), UniProt P36897, T204D) (assay: HTRF probe-displacement assay, HIS-TGFβR1 T204D). Conditions: 1 hour at room temperature.
HIS-TGFβR1 T204D, sequence (P36897 34-503 T204D): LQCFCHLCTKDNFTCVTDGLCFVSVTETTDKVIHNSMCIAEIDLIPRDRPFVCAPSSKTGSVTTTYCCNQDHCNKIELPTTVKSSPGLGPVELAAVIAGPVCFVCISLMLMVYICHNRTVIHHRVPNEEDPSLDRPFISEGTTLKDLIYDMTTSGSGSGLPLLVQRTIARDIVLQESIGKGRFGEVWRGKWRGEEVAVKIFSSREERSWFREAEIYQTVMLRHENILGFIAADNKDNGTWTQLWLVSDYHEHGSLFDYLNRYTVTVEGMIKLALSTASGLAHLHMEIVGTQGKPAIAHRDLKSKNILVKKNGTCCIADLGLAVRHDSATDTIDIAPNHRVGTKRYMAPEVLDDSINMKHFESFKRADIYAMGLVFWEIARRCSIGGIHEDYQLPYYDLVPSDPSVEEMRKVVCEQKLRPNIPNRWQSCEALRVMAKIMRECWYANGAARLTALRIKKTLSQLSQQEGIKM
Assay type: binding
Work on `OC1CCC(NCc2ccn3nc(-c4ccccn4)nc(Nc4ccncc4F)c23)CC1` (centres unmarked) [Example 236, 4-[({4-[(3-fluoropyridin-4-yl)amino]-2-(pyridin-2-yl)pyrrolo[2,1-f][1,2,4]triazin-5-yl}methyl)amino]cyclohexan-1-ol] yielded an IC50 of 2.2 nM.
`Fc1cnccc1Nc1nc(-c2ccc(F)c(C(F)F)n2)nn2cccc12` [Example 66, N-{2-[6-(difluoromethyl)-5-fluoropyridin-2-yl]pyrrolo[2,1-f][1,2,4]triazin-4-yl}-3-fluoropyridin-4-amine] gave an IC50 of 0.46 nM.
With `Fc1cc(Nc2nc(-c3cccc(C(F)(F)F)n3)nn3cccc23)ccn1` [Example 256, 2-fluoro-N-{2-[6-(trifluoromethyl)pyridin-2-yl]pyrrolo[2,1-f][1,2,4]triazin-4-yl}pyridin-4-amine] the IC50 was 250 nM.
`Cc1cccc(-c2nc(Nc3ccncc3C(=O)NC3COC3)c3cccn3n2)n1` [Example 165, 4-{[2-(6-methylpyridin-2-yl)pyrrolo[2,1-f][1,2,4]triazin-4-yl]amino}-N-(oxetan-3-yl)pyridine-3-carboxamide] gave an IC50 of 14 nM.
Work on `CCOc1cccc(-c2nc(Nc3ccncc3F)c3cccn3n2)n1` [Example 102, N-[2-(6-ethoxypyridin-2-yl)pyrrolo[2,1-f][1,2,4]triazin-4-yl]-3-fluoropyridin-4-amine] yielded an IC50 of 15 nM.
With `NC(=O)c1cnccc1Nc1nc(-c2ccccn2)nn2cccc12` [Example 83, 4-{[2-(pyridin-2-yl)pyrrolo[2,1-f][1,2,4]triazin-4-yl]amino}pyridine-3-carboxamide] the IC50 was 0.76 nM.
In the case of `CC(O)CNCc1ccn2nc(-c3ccccn3)nc(Nc3ccncc3F)c12` (centres unmarked) [Example 239, 1-[({4-[(3-fluoropyridin-4-yl)amino]-2-(pyridin-2-yl)pyrrolo[2,1-f][1,2,4]triazin-5-yl}methyl)amino]propan-2-ol], the IC50 is reported as 1.2 nM.
With `CC(C)(C)CC(=O)Nc1cc(Nc2nc(-c3cccc(C(F)(F)F)n3)nn3cccc23)ccn1` [Example 321, 3,3-dimethyl-N-[4-({2-[6-(trifluoromethyl)pyridin-2-yl]pyrrolo[2,1-f][1,2,4]triazin-4-yl}amino)pyridin-2-yl]butanamide] the IC50 was 91 nM.
`CC(C)(O)CNCC(=O)Nc1cc(Nc2nc(-c3cccc(C(F)(F)F)n3)nn3cccc23)ccn1` [Example 330, 2-[(2-hydroxy-2-methylpropyl)amino]-N-[4-({2-[6-(trifluoromethyl)pyridin-2-yl]pyrrolo[2,1-f][1,2,4]triazin-4-yl}amino)pyridin-2-yl]acetamide] showed an IC50 of 0.6 nM.
In the case of `Fc1cccc(-c2nc(Nc3ccncc3)c3cccn3n2)n1` [Example 213, N-[2-(6-fluoropyridin-2-yl)pyrrolo[2,1-f][1,2,4]triazin-4-yl]pyridin-4-amine], the IC50 is reported as 14 nM.
For `NC(=O)c1cnccc1Nc1nc(-c2ccc(F)c(C(F)F)n2)nn2cccc12` [Example 224, 4-({2-[6-(difluoromethyl)-5-fluoropyridin-2-yl]pyrrolo[2,1-f][1,2,4]triazin-4-yl}amino)pyridine-3-carboxamide], the IC50 was 1.4 nM.
Compound `COc1cccc(-c2nc(Nc3ccncc3F)c3cccn3n2)n1` [Example 58, 3-fluoro-N-[2-(6-methoxypyridin-2-yl)pyrrolo[2,1-f][1,2,4]triazin-4-yl]pyridin-4-amine] has an IC50 of 4 nM.
Compound `O=C(NC1CCC(F)(F)CC1)c1cnccc1Nc1nc(-c2cccc(C(F)F)n2)nn2cccc12` [Example 201, N-(4,4-difluorocyclohexyl)-4-({2-[6-(difluoromethyl)pyridin-2-yl]pyrrolo[2,1-f][1,2,4]triazin-4-yl}amino)pyridine-3-carboxamide] has an IC50 of 410 nM.
`Cc1cccc(-c2nc(Nc3ccncc3C(=O)N(C)CCN(C)C)c3cccn3n2)n1` [Example 162, N-[2-(dimethylamino)ethyl]-N-methyl-4-{[2-(6-methylpyridin-2-yl)pyrrolo[2,1-f][1,2,4]triazin-4-yl]amino}pyridine-3-carboxamide] was tested, and the IC50 was 110 nM.
